# Measurements from PMC8816891, “High-throughput cell-based assays for identifying antagonists of multiple smoking-associated human nicotinic acetylcholine receptor subtypes” (SLAS discovery : advancing life sciences R & D, 2021).
# Where a name gives a salt, the structure may show the parent alone. Read-outs that look alike come from different tables or passages of the source.
# Legend:
# human α4β2-nAChR [1] = target: T1, human α4β2-nAChR (Homo sapiens, UniProt P17787+P43681); test: cell-based
# Procedure: As described in that prior publication, this SH-EP1-α6/3 β2β3-nAChR monoclone is maintained in medium supplemented with zeocin (0.25 mg/mL), hygromycin (0.13 mg/mL biologically active) and G418 (0.6 mg/mL) to maintain positive selection of transfectants, and cultured at low passage numbers (1–40 from our frozen stocks) to ensure stable expression of the phenotype.
# For the SH-EP1-α4 β2-nAChR and SH-EP1-α6/3 β2β3-nAChR lines: cells were seeded into 384-well black tissue culture plates (Corning #3712) at 7000 cells per well in 50 μl assay media using a microfill (BioTek). The plates were incubated overnight at 37 °C to allow cells to adhere to the plate, then transferred to 29 °C and incubated for ~72h to maximize receptor expression. On the compound addition day, medium was aspirated and plates washed one time with wash buffer (1x HBSS with 20 mM HEPES adjusted to pH 7.4) using a BioTek ELx405 Select CW Plate Washer. Twenty-five microliters of 0.5x FLIPR Membrane Potential dye (Molecular Devices, R8034; prepared in wash buffer) was added to the plates using a microfill. The plates were further incubated at 29 °C for 60 min and background fluorescence was measured (Envision, Perkin Elmer). […] Plates were then incubated at room temperature for 20 min and fluorescence was measured again. Background fluorescence was subtracted from the final fluorescence read during data analysis.
# EC50 values were calculated using nonlinear regression analysis via GraphPad Prism 7 (GraphPad software, Inc.).
# After subtracting background fluorescence from fluorescent read for each plate well, the raw data were converted into a list and all plates were appended by run. For analysis purposes, each data point was annotated with well coordinate, well type, compound identifier, titer plate barcode, run identifier, date, and protocol information. Basic statistics and QC criteria were calculated within TIBCO Spotfire (v7.0.0). Basic statistics of control wells were examined by well type, by run, plate, and row/column to monitor run-to-run and plate-to-plate variation, and to exclude possible experimental issues such as striping. […] Concordance between replicates was assessed using linear regression. For each test well, the percentage of inhibition was obtained by subtracting the normalized fluorescent signal (NFS), expressed as a percentage, from 100%.
# human α6/3β2β3-nAChR [2] = target: T2, human α6/3β2β3-nAChR (Homo sapiens, UniProt P17787+P32297+Q05901+Q15825); test: membrane potential dye assay, SH-EP1-α6/3β2β3-nAChR cells; assay type: cell-based
# T2 construct: expressed in transfected cells
# Procedure: (§1) Concordance between replicates was assessed using linear regression.
# human α3β4-nAChR [3] = target: T3, human α3β4-nAChR (Homo sapiens, UniProt P30926+P32297); test: 86Rb+ efflux orthogonal assay, SH-EP1-α3β4-nAChR cells; assay type: cell-based; details: 10 μM; validated = reduced specific efflux by > 3x SD vs no-drug control
# T3 construct: expressed in transfected cells
# Procedure: (§2) Cells were grown to confluence in 24-well plates (Falcon; 500 μl volume per well). The evening before each assay was to be performed, the medium was removed and replaced with 250 μl per well of complete medium supplemented with ~350,000 cpm of ^86Rb^+ (NEN; counted at 40% efficiency using Cerenkov counting and the Packard TriCarb 1900 Liquid Scintillation Analyzer). This allowed overnight loading of cells with tracer.
# (§3) Determinations of antagonist efficacy were performed in triplicate in each plate, and each antagonist was tested in three separate experiments. […] Specific efflux was then taken as the difference in control samples between total and non-specific ^86Rb^+ efflux, and was used to calculate the efficacy of blocking specific efflux by the test compounds.
# (§4) Fig. 4. Validation and specificity testing of HTS antagonist hits using an orthogonal assay. […] (A) All plates were normalized to internal maximum and minimum controls, as described in the Materials and Methods section. […] Activity measured at α3β4-nAChR is shown with blue symbols, that at α4β2-nAChR with red symbols, and that at α6/3 β2 β3-nAChR with green symbols. Dashed lines are color-matched to data symbols and designate the 3 X SD thresholds above the no-antagonist controls, used to determine validation of antagonist activity in each of the assays.
# human α6/3β2β3-nAChR [4] = target: T2, human α6/3β2β3-nAChR; test: 86Rb+ efflux orthogonal assay, SH-EP1-α6/3β2β3-nAChR cells; assay type: cell-based; details: 10 μM; validated = reduced specific efflux by > 3x SD vs no-drug control
# Procedure: as §2, §3, §4
# human α4β2-nAChR [5] = target: T1, human α4β2-nAChR; test: 86Rb+ efflux orthogonal assay, SH-EP1-α4β2-nAChR cells; assay type: cell-based; set-up: expressed in transfected cells; details: 10 μM; validated = reduced specific efflux by > 3x SD vs no-drug control
# Procedure: Cells were grown to confluence in 24-well plates (Falcon; 500 μl volume per well). The evening before each assay was to be performed, the medium was removed and replaced with 250 μl per well of complete medium supplemented with ~350,000 cpm of ^86Rb^+ (NEN; counted at 40% efficiency using Cerenkov counting and the Packard TriCarb 1900 Liquid Scintillation Analyzer). This allowed overnight loading of cells with tracer. The assay was based on a proven, routine ^86Rb^+ efflux assay “flip-plate” protocol that includes 1500 nM atropine to exclude possible contributions of muscarinic acetylcholine receptors, with test compound or control solutions applied for 30 s.
# Determinations of antagonist efficacy were performed in triplicate in each plate, and each antagonist was tested in three separate experiments. […] Both determinations of non-specific efflux were equivalent. Specific efflux was then taken as the difference in control samples between total and non-specific ^86Rb^+ efflux, and was used to calculate the efficacy of blocking specific efflux by the test compounds.
# Fig. 4. Validation and specificity testing of HTS antagonist hits using an orthogonal assay. […] Activity measured at α3β4-nAChR is shown with blue symbols, that at α4β2-nAChR with red symbols, and that at α6/3 β2 β3-nAChR with green symbols. […]
# human α3β4-nAChR [6] = target: T3, human α3β4-nAChR; test: membrane potential dye assay, SH-EP1-α3β4-nAChR cells; assay type: cell-based
# Procedure: as §1
# [7] = IC50, 5 min incubation, in the presence of 500nM of nicotine
# [8] = IC50, 10 min incubation, in the presence of 500nM of nicotine
# [9] = IC50, 20 min incubation, in the presence of 500nM of nicotine
# [10] = IC50, 25 min incubation, in the presence of 500nM of nicotine
# [11] = average IC50 across all time-points, averaged over 5-30 min reads, nicotine at EC90
# [12] = read-out: pre-determined EC90 value
# T3 sequence (P32297 32-505): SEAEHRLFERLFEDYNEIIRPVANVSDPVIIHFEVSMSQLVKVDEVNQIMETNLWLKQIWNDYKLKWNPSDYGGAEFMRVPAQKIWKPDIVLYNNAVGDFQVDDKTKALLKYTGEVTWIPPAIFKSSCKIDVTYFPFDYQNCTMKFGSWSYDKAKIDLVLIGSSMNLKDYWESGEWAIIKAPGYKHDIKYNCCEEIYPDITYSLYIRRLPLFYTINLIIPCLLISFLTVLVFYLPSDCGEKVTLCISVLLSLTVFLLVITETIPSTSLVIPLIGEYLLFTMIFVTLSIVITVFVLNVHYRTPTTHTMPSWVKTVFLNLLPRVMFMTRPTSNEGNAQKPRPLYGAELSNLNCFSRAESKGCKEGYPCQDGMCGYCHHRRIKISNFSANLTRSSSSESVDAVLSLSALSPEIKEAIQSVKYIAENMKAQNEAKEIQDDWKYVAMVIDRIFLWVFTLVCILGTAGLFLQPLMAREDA
# T3 sequence (P30926 22-498): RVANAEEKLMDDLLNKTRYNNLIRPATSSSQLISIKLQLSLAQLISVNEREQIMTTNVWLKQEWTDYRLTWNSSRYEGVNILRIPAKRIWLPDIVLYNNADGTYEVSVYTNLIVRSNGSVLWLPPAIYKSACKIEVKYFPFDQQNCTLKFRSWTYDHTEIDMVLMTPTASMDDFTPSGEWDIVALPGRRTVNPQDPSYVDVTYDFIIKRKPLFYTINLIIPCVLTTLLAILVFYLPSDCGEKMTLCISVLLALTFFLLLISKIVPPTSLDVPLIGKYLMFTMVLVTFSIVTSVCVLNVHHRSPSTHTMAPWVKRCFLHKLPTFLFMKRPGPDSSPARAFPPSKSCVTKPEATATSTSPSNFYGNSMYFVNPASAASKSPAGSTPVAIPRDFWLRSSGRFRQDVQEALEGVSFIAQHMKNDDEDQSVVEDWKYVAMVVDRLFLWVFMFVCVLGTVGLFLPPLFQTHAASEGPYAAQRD
# T2 sequence (Q15825+P32297 fused with the stated changes): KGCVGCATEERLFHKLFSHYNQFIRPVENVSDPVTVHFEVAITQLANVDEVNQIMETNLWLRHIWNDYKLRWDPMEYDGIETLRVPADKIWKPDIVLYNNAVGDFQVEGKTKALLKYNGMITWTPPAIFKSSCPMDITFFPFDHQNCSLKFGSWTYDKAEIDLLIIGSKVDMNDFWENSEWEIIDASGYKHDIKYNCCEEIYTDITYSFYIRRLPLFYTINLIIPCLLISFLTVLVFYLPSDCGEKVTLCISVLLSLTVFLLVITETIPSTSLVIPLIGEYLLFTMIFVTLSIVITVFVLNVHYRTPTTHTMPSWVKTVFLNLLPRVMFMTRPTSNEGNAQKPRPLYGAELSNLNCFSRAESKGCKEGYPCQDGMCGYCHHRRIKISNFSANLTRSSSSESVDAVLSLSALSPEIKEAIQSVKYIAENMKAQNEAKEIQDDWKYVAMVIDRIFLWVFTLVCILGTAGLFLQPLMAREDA
# T2 sequence (P17787 26-502): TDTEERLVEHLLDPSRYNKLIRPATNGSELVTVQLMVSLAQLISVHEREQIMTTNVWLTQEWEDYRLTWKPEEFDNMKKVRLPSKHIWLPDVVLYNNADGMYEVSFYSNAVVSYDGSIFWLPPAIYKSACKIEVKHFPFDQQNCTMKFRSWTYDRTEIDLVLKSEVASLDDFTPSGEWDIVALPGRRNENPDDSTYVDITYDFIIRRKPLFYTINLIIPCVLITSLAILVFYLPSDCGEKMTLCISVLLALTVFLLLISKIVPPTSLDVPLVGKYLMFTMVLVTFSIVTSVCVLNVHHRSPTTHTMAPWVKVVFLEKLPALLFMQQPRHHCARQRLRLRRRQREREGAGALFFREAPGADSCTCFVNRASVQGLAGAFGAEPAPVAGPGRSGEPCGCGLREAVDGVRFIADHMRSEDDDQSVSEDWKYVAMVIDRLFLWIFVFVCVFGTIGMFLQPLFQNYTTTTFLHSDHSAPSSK
# T2 sequence (Q05901 22-458): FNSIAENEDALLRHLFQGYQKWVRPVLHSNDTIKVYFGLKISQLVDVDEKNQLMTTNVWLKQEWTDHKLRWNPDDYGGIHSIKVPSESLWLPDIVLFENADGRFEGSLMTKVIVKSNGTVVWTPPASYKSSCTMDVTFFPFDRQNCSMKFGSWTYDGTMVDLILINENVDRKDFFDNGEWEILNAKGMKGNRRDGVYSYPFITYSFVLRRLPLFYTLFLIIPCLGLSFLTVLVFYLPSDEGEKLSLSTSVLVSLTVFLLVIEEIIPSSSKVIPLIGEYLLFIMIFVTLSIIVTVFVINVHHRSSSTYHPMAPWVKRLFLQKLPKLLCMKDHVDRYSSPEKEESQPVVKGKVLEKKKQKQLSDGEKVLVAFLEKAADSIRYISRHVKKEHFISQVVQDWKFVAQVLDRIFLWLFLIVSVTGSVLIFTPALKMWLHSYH
# T1 sequence (P43681 29-627 limits assumed): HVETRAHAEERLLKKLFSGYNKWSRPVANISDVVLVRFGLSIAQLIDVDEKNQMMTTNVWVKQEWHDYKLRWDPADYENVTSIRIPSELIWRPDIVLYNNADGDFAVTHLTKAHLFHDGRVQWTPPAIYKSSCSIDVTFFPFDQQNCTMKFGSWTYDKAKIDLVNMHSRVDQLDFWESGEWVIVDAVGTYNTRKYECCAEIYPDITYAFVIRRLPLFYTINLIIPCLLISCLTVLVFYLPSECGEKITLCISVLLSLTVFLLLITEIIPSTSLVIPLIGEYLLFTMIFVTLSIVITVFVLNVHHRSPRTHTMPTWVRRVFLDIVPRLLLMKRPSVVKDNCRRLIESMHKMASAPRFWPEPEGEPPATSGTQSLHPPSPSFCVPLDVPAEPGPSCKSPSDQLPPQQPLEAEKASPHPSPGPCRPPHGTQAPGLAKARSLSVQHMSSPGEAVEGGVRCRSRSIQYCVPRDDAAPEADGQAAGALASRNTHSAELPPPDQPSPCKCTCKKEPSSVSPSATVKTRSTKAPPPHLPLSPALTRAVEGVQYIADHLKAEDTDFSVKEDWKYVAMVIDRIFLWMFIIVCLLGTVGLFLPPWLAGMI
# T1 sequence (P17787 26-502): as the sequence (P17787 26-502) above
SMILES,IC50 (human α4β2-nAChR [1]; IC50),IC50 (human α4β2-nAChR [1]; [7]),IC50 (human α4β2-nAChR [1]; [8]),IC50 (human α4β2-nAChR [1]; [9]),IC50 (human α4β2-nAChR [1]; [10]),IC50 (human α4β2-nAChR [1]; [11]),further results
C[N+](C)(C)CCCCCC[N+](C)(C)C [hexamethonium],71600 nM,98300 nM,100000 nM,47900 nM,38900 nM,65800 ± 28800 nM,"IC50 (human α4β2-nAChR [1]; IC50, 30 min incubation, in the presence of 500nM of nicotine): 37400 nM"
CNC1(C)C2CCC(C2)C1(C)C (stereo not drawn) [mecamylamine],896 nM,2250 nM,1090 nM,919 nM,983 nM,1210 ± 520 nM,"IC50 (human α6/3β2β3-nAChR [2]; in the presence of 500 nM nicotine (EC90), read-out: IC50 (α6/3β2β3), Fig. 2D): 1670 nM; IC50 (human α6/3β2β3-nAChR [2]; nicotine at EC90, read-out: average IC50, comparison across subtypes): 1670 nM; antagonist hit identified in HTS and validated by 86Rb+ efflux (human α3β4-nAChR [3]): identified and validated as a hit; antagonist hit identified in HTS and validated by 86Rb+ efflux (human α6/3β2β3-nAChR [4]): identified and validated as a hit; IC50 (human α4β2-nAChR [1]; IC50 (α4β2), Fig. 2D, in the presence of 500 nM nicotine (EC90), subtype comparison): 537 nM; IC50 (human α4β2-nAChR [1]; average IC50, comparison across subtypes, nicotine at EC90): 540 nM; antagonist hit identified in HTS and validated by 86Rb+ efflux (human α4β2-nAChR [5]): identified and validated as a hit"
"CN1CCC[C@H]1c1cccnc1 [nicotine, (−)-nicotine]",,,,,,,EC90 (human α3β4-nAChR [6]; [12]): 20 µM; EC90 (human α6/3β2β3-nAChR [2]; [12]): 500 nM; EC90 (human α4β2-nAChR [1]; [12]): 500 nM
CNCCC=C1c2ccccc2CCc2ccccc21 [nortriptyline hydrochloride],,,,,,,"antagonist hit call in pilot screen (human α3β4-nAChR [6]; test compound 10 μM with 20 μM nicotine (EC90), hit = signal below mean - 3 SD): identified as a hit"
